Experimental data reported in US20090042883A1, “ANTITUMOR AGENT” (KYOWA HAKKOKOGYO CO., priority 2005, published 2009).

Experiments:
Assay type in all cases: cell-based
[1] = tested on: human lung cancer NCI-H596 cells; test: Growth inhibition test on human lung cancer NCI-H596 cells (WST-1, % viability); conditions: test compound 10 μmol/L, cells without test compound = 100%
Description: (§1) Four thousand cells of human lung cancer NCI-H596 were inoculated into each well of a 96-well microplate (manufactured by Nunc Corp.), and using RPMI1640 medium (culture medium) containing 10% FCS, preculturing was performed in a 5% carbon dioxide incubator at 37° C. for 24 hours. A DMSO solution of each test compound prepared in a concentration of 10 mmol/L was diluted with the culture medium to a final concentration of 10 μmol/L, and the diluted solution was added to each well. The individual wells were further cultured in the 5% carbon dioxide incubator at 37° C. for 72 hours. After completion of the culturing, 10 μL of WST-1 labeled mixture (manufactured by Roche Diagnostic Corp.) was added to each well, and culturing was performed in the 5% carbon dioxide incubator at 37° C. for 2 hours. Using a microplate spectrophotometer (Model 550; manufactured by Bio-Rad), the absorbance of each well was measured at 450 nm and 655 nm. The value obtained by subtracting the absorbance at 450 nm from the absorbance at 655 nm (absorbance difference) was calculated for each well. The value for cells not incorporated with a test compound was designated as 100%, and the value at a well not containing cells was designated as 0%. By comparing these values with the absorbance difference obtained at the well in which each test compound was added, the cell viability (% viability) after treatment with the test compound was calculated.

[2] = tested on: human chronic lymphocytic leukemia-derived MEC-1 cells; test: Growth inhibition test on human chronic lymphocytic leukemia-derived MEC-1 cells (WST-1, % viability); conditions: test compound 10 μmol/L, 72 hours, cells without test compound = 100%
Description: as §1, with “Ten thousand” for “Four thousand”, “human chronic lymphocytic leukemia-derived MEC-1” for “human lung cancer NCI-H596”, “for 1 hour.” for “for 24 hours.”, “for 3” for “for 2”, “spectrophotometer (M-SPmax 250;” for “spectrophotometer (Model 550;”, “by Molecular Devices Corp.),” for “by Bio-Rad),”

[3] = tested on: human T-cell lymphoma Karpas-299 cells; test: Growth inhibition test on human T-cell lymphoma Karpas-299 cells (WST-1, % viability); conditions: test compound 10 μmol/L, 72 hours, cells without test compound = 100%
Description: as §1, with “Five” for “Four”, “T-cell lymphoma Karpas-299” for “lung cancer NCI-H596”, “RPMI” for “RPMI1640”, “5” for “24”, “(SpectraMax 340PC384;” for “(Model 550;”, “Nihon Molecular Devices),” for “Bio-Rad),”

[4] = tested on: human mammary cancer BT-474 cells; test: Growth inhibition test on human mammary cancer BT-474 cells (WST-1, % viability); conditions: test compound 10 μmol/L, cells without test compound = 100%
Description: as §1, with “mammary” for “lung”, “BT-474” for “NCI-H596”, “Dulbecco's Modified Eagle's Medium (DMEM)” for “RPMI1640 medium”, “(SpectraMax 340PC384;” for “(Model 550;”, “Nihon Molecular Devices),” for “Bio-Rad),”

Row | SMILES | Viability of tumor cells (% viability), Human lung cancer NCI-H596 cells [1] | Viability of tumor cells (% viability), Human chronic lymphocytic leukemia MEC-1 cells [2] | Viability of tumor cells (% viability), Human T-cell lymphoma Karpas-299 cells [3] | Viability of tumor cells (% viability), Human mammary cancer BT-474 cells [4]
1 | CCc1c(O)cc(O)c(C(=O)c2ccc(OC(F)F)cc2)c1CC(=O)N(CCO)CCOC [Compound 91] | 14% | 4% | 16% | 13%
2 | CCc1c(O)cc(O)c(C(=O)c2ccc(O)c(OC)c2)c1CC(=O)N(CCOC)CCOC [Compound 106] | 12% | 4% | 13% | 12%
3 | CCc1c(O)cc(O)c(C(=O)c2ccc(C(F)(F)F)cc2)c1CC(=O)N(CCO)CCOC [Compound 144] | 14% | 4% | 15% | 13%
4 | CCc1c(O)cc(O)c(C(=O)c2ccc(OC)cc2)c1CC(=O)N(CCO)CCOC [Compound 33] | 20% | 4% | 14% | 13%
5 | CCc1c(O)cc(O)c(C(=O)c2ccc(OC)cc2)c1CC(=O)N(CCO)Cc1ccco1 [Compound 69] | 15% | 4% | 14% | 13%
6 | CCc1c(O)cc(O)c(C(=O)c2ccc(OC)cc2)c1CC(=O)N(CCO)CCO [Compound 13] | 35% | 7% | 27% | 12%
7 | CCOc1ccc(C(=O)c2c(O)cc(O)c(CC)c2CC(=O)N(CCO)CCOC)cc1 [Compound 122] | 15% | 4% | 12% | 12%
